Read-outs that look alike come from different tables or passages of the source. Square brackets hold non-standard residues; d marks the D form. Peptide text beside a SMILES is read from it. * marks the point of attachment. dPhe(4-NO2) = N[C@H](Cc1ccc([N+](=O)[O-])cc1)C(=O)O; dPhe(4-Me) = Cc1ccc(C[C@@H](N)C(=O)O)cc1; Cys(free,S-linked) = N[C@@H](CS*)C(=O)O; dPhe(2-Cl) = N[C@H](Cc1ccccc1Cl)C(=O)O; d2Nal = N[C@H](Cc1ccc2ccccc2c1)C(=O)O; dChg = N[C@@H](C(=O)O)C1CCCCC1; dPhg = N[C@@H](C(=O)O)c1ccccc1; dTle = CC(C)(C)[C@@H](N)C(=O)O
How the values were obtained:
[1] = test system: rat peritoneal mast cells; experiment: In vitro histamine release in rat peritoneal mast cells (histamine ELISA); format: cell-based; settings: test compound final concentration 10 μM, 15 min at 37° C., relative to PBS buffer (1.00)
Description: To evaluate the in vitro histamine release levels induced by some of the test example compounds, rat peritoneal mast cells were collected by lavaging rat peritoneum with a lavage buffer (cold HBSS+25 mM HEPES containing heparin 5 U/mL, pH 7.4). After collection, the cells were centrifuged, and the lavage buffer was discarded. The cells were resuspended and washed twice with a stimulation buffer (HBSS+25 mM HEPES+1 mM CaCl2), pH 7.4). The cells were plated at a density of 10^5 cell/well (200 μL/well) and incubated at 37° C. for 15 min with positive control compound 48/80 (final concentration: 4 μg/mL), test example compounds (final concentration: 10 μM) or vehicle control. The cells were centrifuged, and cell supernatant was collected and tested for histamine concentration according to LDN Histamine ELISA kit (BAE-1000) instructions.

[2] = target: T1, human calcium-sensing receptor (CaSR) (Homo sapiens, UniProt P41180); experiment: Agonist activity on human calcium-sensing receptor (IP-One HTRF in stably transfected HEK293/CaSR cells); format: cell-based
T1 construct: host or cells: HEK293
T1 sequence (P41180 20-1078): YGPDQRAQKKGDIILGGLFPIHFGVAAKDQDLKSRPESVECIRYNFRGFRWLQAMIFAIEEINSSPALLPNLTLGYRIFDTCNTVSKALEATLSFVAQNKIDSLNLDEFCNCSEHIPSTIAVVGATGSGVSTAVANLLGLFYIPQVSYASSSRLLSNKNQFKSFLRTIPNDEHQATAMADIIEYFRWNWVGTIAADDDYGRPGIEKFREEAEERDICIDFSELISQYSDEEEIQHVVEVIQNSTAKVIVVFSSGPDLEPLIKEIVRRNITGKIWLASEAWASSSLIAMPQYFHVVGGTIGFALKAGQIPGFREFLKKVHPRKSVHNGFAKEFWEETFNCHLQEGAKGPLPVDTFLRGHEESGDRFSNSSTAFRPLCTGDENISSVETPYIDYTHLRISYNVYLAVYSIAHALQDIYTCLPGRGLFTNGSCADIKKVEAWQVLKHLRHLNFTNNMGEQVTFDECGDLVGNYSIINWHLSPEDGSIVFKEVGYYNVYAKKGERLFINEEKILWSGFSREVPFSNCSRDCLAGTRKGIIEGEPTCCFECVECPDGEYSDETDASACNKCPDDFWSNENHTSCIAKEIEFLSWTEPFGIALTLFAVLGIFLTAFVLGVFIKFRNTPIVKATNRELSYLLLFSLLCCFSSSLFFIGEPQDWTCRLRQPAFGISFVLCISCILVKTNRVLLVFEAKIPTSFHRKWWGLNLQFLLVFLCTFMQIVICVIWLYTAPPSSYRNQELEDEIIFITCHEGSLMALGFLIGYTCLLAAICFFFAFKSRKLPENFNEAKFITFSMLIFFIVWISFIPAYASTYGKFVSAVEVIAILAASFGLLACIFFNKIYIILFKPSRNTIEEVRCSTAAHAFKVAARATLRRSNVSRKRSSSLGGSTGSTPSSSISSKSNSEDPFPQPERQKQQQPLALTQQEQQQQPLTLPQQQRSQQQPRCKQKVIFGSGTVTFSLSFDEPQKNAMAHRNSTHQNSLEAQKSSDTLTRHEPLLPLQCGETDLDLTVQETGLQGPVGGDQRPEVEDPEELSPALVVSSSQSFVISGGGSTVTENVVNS
Description: 3.1.1 Objective: The test example is intended to measure the agonist activity of compounds 1-38 on the human calcium-sensing receptor (CaSR).
Stably transfected HEK293/CaSR cells (source: Pharmaron) were cultured in a complete medium (composition: DMEM, high glucose+10% FBS+2 mM GlutaMAX+1× Penicillin-Streptomycin+200 μg/mL Hygromycin B) and incubated at 37° C./5% CO2 till 70%-90% cell confluence. The cells were digested with TrypLE, inoculated into 384-well cell culture plates, and cultured overnight at 37° C./5% CO2. After buffer exchange, stimulation buffer (HEPES 10 mM, MgCl2 0.5 mM, KCl 4.2 mM, NaCl 146 mM, glucose 5.5 mM, LiCl 50 mM, CaCl2 1.2 mM) and various concentrations of the test example compounds were added and incubated at 37° C. for 60 min. Production of IP-One in cells was detected according to the procedures in the Cisbio IP-One Tb kit instructions. The EC50 values of various test example compounds in influencing human calcium-sensing receptor was calculated by software after the raw data of the example compounds were collected, so as to evaluate the agonist activity of the example compounds on human calcium-sensing receptor.
HTRF signal was read by an EnVision detector with an excitation wavelength of 320 nm and emission wavelengths of 620 nm and 665 nm. The signal ratio (665 nm/620 nm×10,000) was calculated and fitted non-linearly to the sample concentration in GraphPad Prism 6 using a four-parameter equation to give EC50 values of the test example compounds 1-38.

[3] = HEK293/CaSR cells, IP-One production, 60 min at 37° C., CaCl2 1.2 mM, read-out: EC50 for calcium-sensing receptor

Row | SMILES | Relative fold of histamine release in vitro [1] | EC50 [2, 3] [µM] | EC50 [2] [µM]
1 | CC(=O)N[C@H](CSSC[C@H](N)C(=O)O)C(=O)N[C@@H](C(=O)N[C@H](CCCNC(=N)N)C(=O)N[C@H](CCCNC(=N)N)C(=O)N[C@H](CCCNC(=N)N)C(=O)N[C@H](C)C(=O)N[C@H](CCCNC(=N)N)C(N)=O)c1ccccc1 [Compound 1, Ac-c(C)-(D-Phg)-r-r-r-a-r-NH2] (Ac-[dC](Cys(free,S-linked))[dPhg][dR][dR][dR][dA][dR]-NH2) | 1.50 | 15.7 | 
2 | CC(=O)N[C@H](CSSC[C@H](N)C(=O)O)C(=O)N[C@H](Cc1ccccc1Cl)C(=O)N[C@H](CCCNC(=N)N)C(=O)N[C@H](CCCNC(=N)N)C(=O)N[C@H](CCCNC(=N)N)C(=O)N[C@H](C)C(=O)N[C@H](CCCNC(=N)N)C(N)=O [Compound 2, Ac-c(C)-[D-Phe(2-Cl)]-r-r-r-a-r-NH2] (Ac-[dC](Cys(free,S-linked))[dPhe(2-Cl)][dR][dR][dR][dA][dR]-NH2) | 4.96 | 6.76 | 
3 | CC(=O)N[C@H](CSSC[C@H](N)C(=O)O)C(=O)N[C@H](Cc1ccc(C)cc1)C(=O)N[C@H](CCCNC(=N)N)C(=O)N[C@H](CCCNC(=N)N)C(=O)N[C@H](CCCNC(=N)N)C(=O)N[C@H](C)C(=O)N[C@H](CCCNC(=N)N)C(N)=O [Compound 3, Ac-c(C)-[D-Phe(4-CH3)]-r-r-r-a-r-NH2] (Ac-[dC](Cys(free,S-linked))[dPhe(4-Me)][dR][dR][dR][dA][dR]-NH2) |  | 15.3 | 
4 | CC(=O)N[C@H](CSSC[C@H](N)C(=O)O)C(=O)N[C@H](Cc1ccc(O)cc1)C(=O)N[C@H](CCCNC(=N)N)C(=O)N[C@H](CCCNC(=N)N)C(=O)N[C@H](CCCNC(=N)N)C(=O)N[C@H](C)C(=O)N[C@H](CCCNC(=N)N)C(N)=O [Compound 4, Ac-c(C)-(D-Tyr)-r-r-r-a-r-NH2] (Ac-[dC](Cys(free,S-linked))[dY][dR][dR][dR][dA][dR]-NH2) | 3.94 | 6.92 | 
5 | CC(=O)N[C@H](CSSC[C@H](N)C(=O)O)C(=O)N[C@H](Cc1c[nH]c2ccccc12)C(=O)N[C@H](CCCNC(=N)N)C(=O)N[C@H](CCCNC(=N)N)C(=O)N[C@H](CCCNC(=N)N)C(=O)N[C@H](C)C(=O)N[C@H](CCCNC(=N)N)C(N)=O [Compound 5, Ac-c(C)-(D-Trp)-r-r-r-a-r-NH2] (Ac-[dC](Cys(free,S-linked))[dW][dR][dR][dR][dA][dR]-NH2) | 4.13 | 1.14 | 
6 | CC(=O)N[C@H](CSSC[C@H](N)C(=O)O)C(=O)N[C@H](CO)C(=O)N[C@H](CCCNC(=N)N)C(=O)N[C@H](CCCNC(=N)N)C(=O)N[C@H](CCCNC(=N)N)C(=O)N[C@H](CO)C(=O)N[C@H](CCCNC(=N)N)C(N)=O [Compound 6, Ac-c(C)-s-r-r-r-s-r-NH2] (Ac-[dC](Cys(free,S-linked))[dS][dR][dR][dR][dS][dR]-NH2) | 1.65 | 11.6 | 
7 | CC(=O)N[C@H](CSSC[C@H](N)C(=O)O)C(=O)N[C@H](Cc1c[nH]cn1)C(=O)N[C@H](CCCNC(=N)N)C(=O)N[C@H](CCCNC(=N)N)C(=O)N[C@H](CCCNC(=N)N)C(=O)NCC(=O)N[C@H](CCCNC(=N)N)C(N)=O [Compound 7, Ac-c(C)-h-r-r-r-G-r-NH2] (Ac-[dC](Cys(free,S-linked))[dH][dR][dR][dR]G[dR]-NH2) | 2.24 | 18.6 | 
8 | CC(=O)N[C@H](CSSC[C@H](N)C(=O)O)C(=O)N[C@H](Cc1c[nH]c2ccccc12)C(=O)N[C@H](CCCNC(=N)N)C(=O)N[C@H](CCCNC(=N)N)C(=O)N[C@H](CCCNC(=N)N)C(=O)NCC(=O)N[C@H](CCCNC(=N)N)C(N)=O [Compound 9, Ac-c(C)-w-r-r-r-G-r-NH2] (Ac-[dC](Cys(free,S-linked))[dW][dR][dR][dR]G[dR]-NH2) |  | 3.16 | 
9 | CC(=O)N[C@H](CSSC[C@H](N)C(=O)O)C(=O)N[C@H](CCCNC(=N)N)C(=O)N[C@H](CCCNC(=N)N)C(=O)N[C@H](Cc1ccc([N+](=O)[O-])cc1)C(=O)N[C@H](CCCNC(=N)N)C(=O)N[C@H](C)C(=O)N[C@H](CCCNC(=N)N)C(N)=O [Compound 14, Ac-c(C)-r-r-[D-Phe(4-NO2)]-r-a-r-NH2] (Ac-[dC](Cys(free,S-linked))[dR][dR][dPhe(4-NO2)][dR][dA][dR]-NH2) |  | 4.33 | 
10 | CC(=O)N[C@H](CSSC[C@H](N)C(=O)O)C(=O)N[C@H](CCCNC(=N)N)C(=O)N[C@H](CCCNC(=N)N)C(=O)N[C@H](Cc1ccc2ccccc2c1)C(=O)N[C@H](CCCNC(=N)N)C(=O)N[C@H](C)C(=O)N[C@H](CCCNC(=N)N)C(N)=O [Compound 15, Ac-c(C)-r-r-(D-2-NaI)-r-a-r-NH2] (Ac-[dC](Cys(free,S-linked))[dR][dR][d2Nal][dR][dA][dR]-NH2) |  | 5.59 | 
11 | CC(=O)N[C@H](CSSC[C@H](N)C(=O)O)C(=O)N[C@H](CCCNC(=N)N)C(=O)N[C@H](CCCNC(=N)N)C(=O)N[C@H](CCC(N)=O)C(=O)N[C@H](CCCNC(=N)N)C(=O)NCC(=O)N[C@H](CCCNC(=N)N)C(N)=O [Compound 23, Ac-c(C)-r-r-q-r-G-r-NH2] (Ac-[dC](Cys(free,S-linked))[dR][dR][dQ][dR]G[dR]-NH2) |  | 30.4 | 
12 | CC(=O)N[C@H](CSSC[C@H](N)C(=O)O)C(=O)N[C@H](CCCNC(=N)N)C(=O)N[C@H](CCCNC(=N)N)C(=O)N[C@H](Cc1c[nH]cn1)C(=O)N[C@H](CCCNC(=N)N)C(=O)NCC(=O)N[C@H](CCCNC(=N)N)C(N)=O [Compound 28, Ac-c(C)-r-r-h-r-G-r-NH2] (Ac-[dC](Cys(free,S-linked))[dR][dR][dH][dR]G[dR]-NH2) |  | 21.5 | 
13 | CC(=O)N[C@H](CSSC[C@H](N)C(=O)O)C(=O)N[C@H](CCCNC(=N)N)C(=O)N[C@H](CCCNC(=N)N)C(=O)N[C@@H](C(=O)N[C@H](CCCNC(=N)N)C(=O)NCC(=O)N[C@H](CCCNC(=N)N)C(N)=O)C1CCCCC1 [Compound 36, Ac-c(C)-r-r-(D-Chg)-r-G-r-NH2] (Ac-[dC](Cys(free,S-linked))[dR][dR][dChg][dR]G[dR]-NH2) |  | 17.9 | 
14 | CC(=O)N[C@H](CSSC[C@H](N)C(=O)O)C(=O)N[C@H](CCCNC(=N)N)C(=O)N[C@H](CCCNC(=N)N)C(=O)N[C@@H](C(=O)N[C@H](CCCNC(=N)N)C(=O)NCC(=O)N[C@H](CCCNC(=N)N)C(N)=O)C(C)(C)C [Compound 38, Ac-c(C)-r-r-(D-Tle)-r-G-r-NH2] (Ac-[dC](Cys(free,S-linked))[dR][dR][dTle][dR]G[dR]-NH2) |  | 18.7 | 
15 | CC(=O)N[C@H](CSSC[C@H](N)C(=O)O)C(=O)N[C@H](CCCNC(=N)N)C(=O)N[C@H](CCCNC(=N)N)C(=O)N[C@H](C)C(=O)N[C@H](CCCNC(=N)N)C(=O)N[C@H](C)C(=O)N[C@H](CCCNC(=N)N)C(N)=O [Etelcalcetide analogue, Ac-c(C)-r-r-a-r-a-r-NH2, reference compound] (Ac-[dC](Cys(free,S-linked))[dR][dR][dA][dR][dA][dR]-NH2) |  |  | 6.74

Source: US20230041996A1, “CALCIUM-SENSING RECEPTOR AGONIST COMPOUND AND APPLICATION THEREOF” (BEIJING TUO JIE BIOPHARMACEUTICAL CO. LTD., priority 2019, published 2023)
